Consider four compounds from ChEMBL document CHEMBL4814008, “Using porphyrins as albumin-binding molecules to enhance antitumor efficacies and reduce systemic toxicities of antimicrobial peptides” (Eur J Med Chem, 2021).

A short description of data set [1]: Drug uptake in human MDA-MB-231 cells by flow cytometric analysis. Type of data set: ADME, cell-based.
Data set [2] is described as follows: Drug uptake in human L02 cells by flow cytometric analysis. The class given is ADME, cell-based.
For a further data set, the target named is Albumin (Homo sapiens, UniProt P02768). Nature of the data set: Binding affinity to human serum albumin assessed as dissociation constant by fluorescence emission spectrophotometric analysis. Type of data set: ADME, cell-free.
Data set [3] deals with 4T1. Description: Phototoxicity against mouse 4T1 cells in presence of illumination by MTT assay. The class given is functional, cell-based. The following applies: 4T1, light or radiation study.
Data set [4] relates to 4T1. Nature of the data set: Phototoxicity against mouse 4T1 cells in presence of illumination by MTT assay relative to control. The class given is functional. For orientation: Formazan colour is commonly taken as a measure of viable cells.
Another data set deals with CWR22R. Description: Cytotoxicity against human 22RV1 cells. The class given is functional, cell-based.
A short description of data set [5]: Toxicity in ICR mouse assessed as effect on lungs morphology at 100 uM, iv measured after 24 hrs by H and E staining based light microscopic analysis. The following applies: in vivo. The class given is organism-based.
Data set [6] is described as follows: Toxicity in ICR mouse assessed as effect on heart morphology at 100 uM, iv measured after 24 hrs by H and E staining based light microscopic analysis. Type of data set: organism-based. The following applies: in vivo.
Data set [7] can be described thus: Toxicity in ICR mouse assessed as effect on spleen morphology at 100 uM, iv measured after 24 hrs by H and E staining based light microscopic analysis. The class given is organism-based. The following applies: in vivo.
In data set [8] the test system is 4T1. Nature of the data set: Anti-metastatic activity against mouse 4T1 cells xenografted in BALB/c mouse assessed as metastasized area in lungs at 2.4 mg/kg, iv dosed every 3 days for 23 days and measured on day 30 by hematoxylin and eosin staining based analysis (reference value: 44.8%). The class given is functional. The following applies: time 30 day.
For data set [9], the system named is 4T1. Description: Antitumor activity against mouse 4T1 cells xenografted in BALB/c mouse assessed as inhibition of tumor growth at 2.4 mg/kg, iv dosed every 3 days for 23 days. The class given is functional, organism-based. Particulars: time 23.0 day.
Data set [10] has as its system 4T1. Description: Antitumor activity against mouse 4T1 cells xenografted in BALB/c mouse assessed as reduction in tumor weight at 2.4 mg/kg, iv dosed every 3 days for 23 days and measured on day 23. Type of data set: functional. Particulars: 4T1, iv, 552 h, time 23 day.
Data set [11] can be described thus: Toxicity in ICR mouse assessed as effect on kidney morphology at 100 uM, iv measured after 24 hrs by H and E staining based light microscopic analysis. Particulars: in vivo. The class given is organism-based.
Data set [12] is described as follows: Hepatotoxicity in ICR mouse assessed as hepatocytes with extensive shrinking cytoplasm, destroyed intercellular connections, necrotic cells with smeared nuclei at 100 uM, iv measured after 24 hrs by H and E staining based light microscopic analysis. Type of data set: toxicity, organism-based.
Data set [13] relates to Erythrocyte. Nature of the data set: Induction of hemolysis in RBC (unknown origin) in absence of serum. Type of data set: cell-based.
Data set [14] concerns Erythrocyte. Nature of the data set: Induction of hemolysis in RBC (unknown origin) in presence of 10% FBS. The class given is cell-based.
A short description of data set [15]: Time-dependent drug uptake in mouse 4T1 cells measured for 24 hrs by flow cytometric analysis. Particulars: 4t1, 24 h, TDE = time-dependent effect. Type of data set: ADME, cell-based. For orientation: In flow cytometry, cells or beads pass a laser one at a time.
Data set [16] deals with 4T1. Nature of the data set: Cytotoxicity against mouse 4T1 cells by MTT assay. The class given is functional, cell-based.
The subject of data set [17] is MDA-MB-231. Description: Cytotoxicity against human MDA-MB-231 cells assessed as reduction in cell viability at 0.5 uM by calcein-AM/PI staining based fluorescence analysis. The class given is functional.
The subject of data set [18] is MDA-MB-231. Description: Phototoxicity against human MDA-MB-231 cells assessed as reduction in cell viability at 0.5 uM in presence of illumination by calcein-AM/PI staining based fluorescence analysis. The class given is functional.
Data set [19] deals with MDA-MB-231. Description: Induction of apoptosis in human MDA-MB-231 cells assessed as early apoptotic cells at […] by flow cytometric analysis. Type of data set: functional. Particulars: dose 2.5 µM.
The test system of data set [20] is MDA-MB-231. Nature of the data set: Induction of apoptosis in human MDA-MB-231 cells assessed as necrotic cells at […] by flow cytometric analysis. Type of data set: functional. The following applies: dose 2.5 µM.
The test system of data set [21] is MDA-MB-231. Description: Induction of apoptosis in human MDA-MB-231 cells assessed as early apoptotic cells at […] in presence of illumination by flow cytometric analysis. Type of data set: functional. Particulars: dose 0.25 µM.
Data set [22] concerns MDA-MB-231. Nature of the data set: Induction of apoptosis in human MDA-MB-231 cells assessed as necrotic cells at […] in presence of illumination by flow cytometric analysis. Type of data set: functional. The following applies: dose 0.25 µM.
A short description of data set [23]: Drug localization in lysosomes of human MDA-MB-231 cells at 0.5 uM by DAPI staining based confocal laser scanning microscopic method. The class given is ADME, subcellular, Lysosome. The following applies: mda-mb-231, 0.5 µM.
Data set [24] can be described thus: Drug localization in mitochondria of human MDA-MB-231 cells at 0.5 uM by DAPI staining based confocal laser scanning microscopic method. The class given is ADME. The following applies: mda-mb-231, 0.5 µM.
A short description of data set [25]: Drug uptake in tumor of BALB/c mouse xenografted with mouse 4T1 cells at 100 uM, iv measured after 120 hrs by fluorescence molecular tomography. Type of data set: ADME, organism-based, Neoplasm. Particulars: in vivo.
A short description of data set [26]: Binding affinity to 1-20% fetal bovine serum protein in PBS assessed as shift in Q-band by UV/Vis spectrophotometric analysis. Type of data set: ADME, cell-free, Bos taurus. Particulars: cattle.
A short description of data set [27]: Binding affinity to 1-20% fetal bovine serum protein in PBS assessed as increase in fluorescence emission by fluorescence spectrophotometric analysis. Type of data set: ADME, cell-free, Bos taurus. Particulars: cattle.
Data set [28] concerns MDA-MB-231. Nature of the data set: Cytotoxicity against human MDA-MB-231 cells assessed as reduction in cell viability at 5 uM by calcein-AM/PI staining based fluorescence analysis. Type of data set: functional.
Data set [29] can be described thus: Drug localization in nucleus of human MDA-MB-231 cells at 0.5 uM by DAPI staining based confocal laser scanning microscopic method. Type of data set: ADME, subcellular. The following applies: mda-mb-231, 0.5 µM.
Data set [30] concerns 4T1. Nature of the data set: Antitumor activity against mouse 4T1 cells xenografted in BALB/c mouse assessed as reduction in tumor weight at 2.4 mg/kg, iv dosed every 3 days for 23 days and illuminated with 670 nm laser light 30 mins after the first dose and measured on day 23. The class given is functional. Particulars: 4T1, iv, 552 h, time 23 day.
Data set [31] relates to 4T1. Nature of the data set: Anti-metastatic activity against mouse 4T1 cells xenografted in BALB/c mouse assessed as metastasized area in lungs at 2.4 mg/kg, iv dosed every 3 days for 23 days and illuminated with 670 nm laser light 30 mins after the first dose and measured on day 30 by hematoxylin and eosin staining based analysis (reference value: 44.8%). The class given is functional. Particulars: time 30 day.

Data set [32] can be described thus: Hepatotoxicity in ICR mouse assessed as hepatocytes with intact nuclei and cytoplasm at 100 uM, iv measured after 24 hrs by H and E staining based light microscopic analysis. Type of data set: toxicity, organism-based.

Each structure is given as a SMILES string. The source made the active and inactive calls. The rule behind the calls is not given here.

Albumin, sequence (P02768 whole entry): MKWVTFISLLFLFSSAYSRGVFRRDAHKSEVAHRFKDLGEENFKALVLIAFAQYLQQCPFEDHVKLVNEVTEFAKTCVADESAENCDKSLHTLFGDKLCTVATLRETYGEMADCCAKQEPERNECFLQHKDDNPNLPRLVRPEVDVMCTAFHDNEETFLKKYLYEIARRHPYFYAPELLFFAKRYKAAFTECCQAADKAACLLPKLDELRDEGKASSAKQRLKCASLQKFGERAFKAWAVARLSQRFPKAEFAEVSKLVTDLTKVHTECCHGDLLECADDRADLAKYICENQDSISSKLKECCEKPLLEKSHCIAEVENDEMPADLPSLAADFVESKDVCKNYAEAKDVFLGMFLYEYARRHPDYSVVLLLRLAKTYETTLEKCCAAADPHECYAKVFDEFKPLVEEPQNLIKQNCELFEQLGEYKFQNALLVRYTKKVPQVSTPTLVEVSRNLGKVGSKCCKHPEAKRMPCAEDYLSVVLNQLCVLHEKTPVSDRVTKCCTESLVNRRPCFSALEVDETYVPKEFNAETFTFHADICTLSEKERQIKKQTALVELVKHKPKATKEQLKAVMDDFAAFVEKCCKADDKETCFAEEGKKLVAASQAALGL

For `C=Cc1c(C)c2cc3nc(c4c5[nH]c(cc6nc(cc1[nH]2)C(C)=C6CC)c(C)c5C(=O)C4)[C@@H](CCC(=O)O)[C@@H]3C` [PYROPHEOPHORBIDE A], the Drug uptake result in [1] and in [2] was “Active” throughout. The Kd (as a rule, the constant that tells how readily two partners part at equilibrium) at Albumin amounted to 0.0893 µM. Also, the concentration for half-maximal inhibition (IC50) – broadly, the concentration at which inhibition is half-maximal – in the data set with 4T1 [3] was found to be 0.13 µM. For the same compound, the Activity in the data set with 4T1 [4] was found to be 90%.
`CC(C)C[C@H](NC(=O)[C@H](CC(C)C)NC(=O)[C@@H](CCCCN)NC(=O)[C@H](CC(C)C)NC(=O)[C@H](CC(C)C)NC(=O)[C@H](CCCCN)NC(=O)[C@@H](CCCCN)NC(=O)[C@@H](CC(C)C)NC(=O)[C@H](CC(C)C)NC(=O)[C@@H](CCCCN)NC(=O)[C@H](CCCCN)NC(=O)[C@H](CC(C)C)NC(=O)[C@@H](CC(C)C)NC(=O)[C@H](CCCCN)NC(=O)[C@H](CC(C)C)NC(=O)CNC(=O)CN)C(N)=O` had an IC50 in the data set with CWR22R of 6 µM.
Consider `CCN(CC)c1ccc2c(-c3ccccc3C(=O)NCC(=O)NCC(=O)N[C@@H](CC(C)C)C(=O)N[C@@H](CCCCN)C(=O)N[C@H](CC(C)C)C(=O)N[C@@H](CC(C)C)C(=O)N[C@@H](CCCCN)C(=O)N[C@H](CCCCN)C(=O)N[C@@H](CC(C)C)C(=O)N[C@H](CC(C)C)C(=O)N[C@H](CCCCN)C(=O)N[C@@H](CCCCN)C(=O)N[C@@H](CC(C)C)C(=O)N[C@@H](CC(C)C)C(=O)N[C@H](CCCCN)C(=O)N[C@@H](CC(C)C)C(=O)N[C@@H](CC(C)C)C(N)=O)c3ccc(=[N+](CC)CC)cc-3oc2c1`, for which the Activity entry is listed as “Non-Toxic” in [5]; “Non-Toxic” in [6]; “Non-Toxic” in data set [7]; 14.5% with 4T1 [8]; “Non-Toxic” in data set [11]; “Toxic” in data set [12]. Moreover, the Activity result in the data set on Erythrocyte [13] was “Toxic”; in the data set on Erythrocyte [14] it was “Non-Toxic”. In addition, in the data set with 4T1 [9], the outcome was Active. Also, in the data set on 4T1 [10], the inhibition in vivo (usually how much of the control response was suppressed) at 2.4 mg/kg came out at 47.3%.
Turning to `C=Cc1c(C)c2cc3nc(c4c5[nH]c(cc6nc(cc1[nH]2)C(C)=C6CC)c(C)c5C(=O)C4)[C@@H](CCC(=O)NCC(=O)NCC(=O)N[C@@H](CC(C)C)C(=O)N[C@@H](CCCCN)C(=O)N[C@H](CC(C)C)C(=O)N[C@@H](CC(C)C)C(=O)N[C@@H](CCCCN)C(=O)N[C@H](CCCCN)C(=O)N[C@@H](CC(C)C)C(=O)N[C@H](CC(C)C)C(=O)N[C@H](CCCCN)C(=O)N[C@@H](CCCCN)C(=O)N[C@@H](CC(C)C)C(=O)N[C@@H](CC(C)C)C(=O)N[C@H](CCCCN)C(=O)N[C@@H](CC(C)C)C(=O)N[C@@H](CC(C)C)C(N)=O)[C@@H]3C`, the Activity result in data set [5] was “Non-Toxic”; in data set [6], “Non-Toxic”; in data set [7], “Non-Toxic”; with 4T1 [8], 4.7%; with 4T1 [16] it was “Dose-Dependent Effect”; in the data set with MDA-MB-231 [19] it was 7.48%. Moreover, the Activity in the data set on MDA-MB-231 [20] is given as 37.52%; in the data set with MDA-MB-231 [21], 10.1%; in the data set with MDA-MB-231 [22], 29%; in [11], “Non-Toxic”; in [26], “Active”; in data set [27] it was “Active”. The Activity result is reported as “Toxic” with Erythrocyte [13]; “Non-Toxic” in the data set on Erythrocyte [14]; 100% with 4T1 [4]; 1.5% in the data set with 4T1 [31]; “Non-Toxic” in [32]. In addition, the Drug uptake result was “Tde” in data set [15]; “Active” in data set [1]; “Not Active” in data set [2]; “Active” in data set [23]; “Active” in data set [24]; “Active” in [25]. In addition, in [29], the Drug uptake result was “Not Active”. The IC50 was 1.69 µM in the data set with 4T1 [16] and 0.38 µM with 4T1 [3]. In addition, the outcome with MDA-MB-231 [17] was inactive. In addition, the outcome in the data set on MDA-MB-231 [18], with 4T1 [9] and in the data set on MDA-MB-231 [28] was Active. The inhibition in vivo at 2.4 mg/kg in the data set with 4T1 [10] was found to be 90.1%; in the data set with 4T1 [30] it was 98.4%. The Kd at Albumin worked out at 0.363 µM.
